The source of these data is patent US20250136652A1, “FUSION PROTEIN FOR TARGETING RECOMBINANT PROTEINS FOR DEGRADATION” (The Regents of the University of California, priority 2022, published 2025).

The test system of this test is synthetic drug-inducible transcription factor (SynTF) fused to a SynZip. The test is described as follows: STUD negative feedback circuit regulating SynTF in Jurkat T cells, GFP reporter. In kind it is cell-based. The settings on record: GZV 72 hours at 37 C. An excerpt:
FIG. 6A: STUDs can be composed into negative feedback circuit to regulate synthetic transcription factor (SynTF). Cartoon diagram of plasmids used in negative feedback circuit transduced into Jurkat T cells. Synthetic transcription factors used in this work (grey) are made up of a transcriptional activation domain (AD) and a DNA binding domain (DBD) separated by a NS3 protease. In the absence of the NS3 inhibitor grazoprevir (GZV), the TF is destabilized and non-functional. On the other hand, the addition of GZV stabilizes the TF and allows for transcription of the gene cassette downstream of the SynTF promoter (pSynTF). Three types of circuits were designed: (1) A negative feedback circuit that has the SynTF driving expression of the GFP reporter and the STUD which results in degradation of the SynTF and shut off the circuit. […]
The circuit has three components: (1) a synthetic drug-inducible transcription factor (SynTF) fused to a SynZip, (2) a GFP reporter, and (3) a SynZip STUD that targets the SynTF (FIG. 6A). […] After incubation, we assay for GFP fluorescence by flow cytometry and gate on cells expressing the co-transduction markers (mCherry and tagBFP) for both plasmids relative to a untransduced control. […]

“SynZip STUD: Fusion protein SEQ ID NO: 413: lysine-free modified synZIP18 heterodimerization domain, flexible linker, C-terminal RRRG degron; 55 amino acids (SIAATLENDLARLENENARLERDIANLERDLARLEREEAYFGSGSGSGSGSRRRG)”: the “inhibition of SynTF (fold change of median GFP relative to DMSO)” value is recorded as “inhibits the SynTF”.
